The values that follow come from patent US4254155A, “Preparing neohesperidin dihydrochalcone sweetener composition” (Chimicasa GmbH, priority 1979, dated 1981).

The data set is described as follows: discoloration / colour of aqueous NHDC solution. In kind it is physicochemical. As to conditions: over a period of time. From the text: The preferred acidulants are weak organic C1 -C6 organic mono- or di-carboxylic acids.
The acidulant-like malic or citric acid is incorporated to lower the pH to less than 6.5, in order to remove the yellow color formed in aqueous solutions of NHDC-based compositions.

In the case of `COc1ccc(CCC(=O)c2c(O)cc(O[C@@H]3O[C@H](CO)[C@@H](O)[C@H](O)[C@H]3O[C@@H]3O[C@@H](C)[C@H](O)[C@@H](O)[C@H]3O)cc2O)cc1O` [NHDC, Neohesperidin dihydrochalcone], the “discoloration of aqueous NHDC solution” value is “yellow discoloration”.
